# Assay results reported in US20250186541A1, “DLL3 TARGETING PEPTIDES AND CONSTRUCTS THEREOF” (MARIANA ONCOLOGY INC., priority 2023, published 2025).
# Numbered stars: 1 amine (or outer) side, 2 acyl side, 3 side chain; on linkers, the order of the positions; unused ones are H or OH. Bridge positions count the residues as written; N and C are the ends. Square brackets hold non-standard residues; d marks the D form. Triazole bridges read from a SMILES are 1,4-linked. Peptide text beside a SMILES is read from it. * marks the point of attachment. Ala(piperidin-4-yl) = O=C([C@H](CC1CCN([*:3])CC1)N[*:1])[*:2]; DOTA = O=C(O)CN1CCN(CC(=O)O)CCN(CC(=O)*)CCN(CC(=O)O)CC1; 1Nal = N[C@@H](Cc1cccc2ccccc12)C(=O)O; 2Nal = N[C@@H](Cc1ccc2ccccc2c1)C(=O)O; Aha = [N-]=[N+]=NCC[C@H](N)C(=O)O; tBuAla = CC(C)(C)C[C@H](N)C(=O)O; AllylGly = C=CC[C@H](N)C(=O)O; αMeP = C[C@@]1(C(=O)O)CCCN1; Pra = C#CC[C@H](N)C(=O)O
# Target: T1, human DLL3 (Homo sapiens, UniProt Q9NYJ7)
# T1 construct: biotin (biotinylated)
# T1 sequence (Q9NYJ7 27-618): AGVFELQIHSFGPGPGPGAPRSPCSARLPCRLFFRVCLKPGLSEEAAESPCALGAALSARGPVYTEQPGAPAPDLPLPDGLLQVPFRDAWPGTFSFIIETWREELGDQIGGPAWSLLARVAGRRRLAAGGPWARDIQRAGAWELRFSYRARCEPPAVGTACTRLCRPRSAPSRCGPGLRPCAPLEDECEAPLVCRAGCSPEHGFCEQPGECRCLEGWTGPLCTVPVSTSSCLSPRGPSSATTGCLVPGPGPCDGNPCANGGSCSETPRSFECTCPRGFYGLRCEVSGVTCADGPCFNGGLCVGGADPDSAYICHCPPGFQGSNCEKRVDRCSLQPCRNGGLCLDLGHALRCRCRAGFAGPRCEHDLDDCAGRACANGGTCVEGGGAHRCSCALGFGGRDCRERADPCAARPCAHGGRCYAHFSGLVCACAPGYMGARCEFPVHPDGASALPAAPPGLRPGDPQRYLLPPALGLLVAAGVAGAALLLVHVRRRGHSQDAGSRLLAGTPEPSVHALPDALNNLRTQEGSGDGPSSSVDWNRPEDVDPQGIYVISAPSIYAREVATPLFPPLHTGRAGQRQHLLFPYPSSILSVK
# Assay: Affinity determination by Surface Plasmon Resonance (SPR), Biacore, 1:1 binding model
# Conditions: biotinylated human DLL3 on streptavidin chip, 25° C.; NB = nonbinding
# Experimental: Example 3. Binding Affinity of Targeting Moieties Polypeptides to DLL3 Affinity Determination by Surface Plasmon Resonance (SPR)
# SPR studies were performed on the compounds disclosed herein using the following protocol. […] Biotinylated target ligand human DLL3 was immobilized on a streptavidin sensor chip. A reference surface was set up for nonspecific binding and refractive index changes. For analysis of the kinetics of interactions, varying concentrations of samples were injected at a flow rate of 100 μL/min using running buffer containing 20 mM phosphate buffer with 2.7 mM KCl, 137 mM NaCl, 0.05% Surfactant P20 and 2% DMSO. Sensorgram curves were fitted with 1:1 binding model, and affinity and kinetic parameters were obtained using Biacore Insight evaluation 4.0. software.
row,SMILES,Kd [nM]
1,"CC(=O)N[C@H](C)C(=O)N[C@@H](CO)C(=O)N[C@@H](CC(=O)O)C(=O)N[C@H]1Cc2cn(nn2)CC[C@@H](C(=O)N2CCC[C@@]2(C)C(=O)N[C@@H](Cc2ccccc2)C(=O)N[C@@H](CC(=O)O)C(=O)N[C@H](CCCCNC(=O)CN2CCN(CC(=O)O)CCN(CC(=O)O)CCN(CC(=O)O)CC2)C(N)=O)NC(=O)[C@H](CC(N)=O)NC(=O)[C@H](Cc2ccc3ccccc3c2)NC(=O)[C@H](CCC(N)=O)NC(=O)[C@H](CC(C)(C)C)NC(=O)[C@H](Cc2cccc3ccccc23)NC1=O [Cpd #163, Ac-(D-Ala)-S-D-[Pra(5)]-(1Nal)-(t-Bu-Ala)-Q-(2Nal)-N-[DabN3(5)]-(aMe-P)-F -D-D-Lys(DOTA)-CONH2] (Ac-[dA]SD[Pra][1Nal][tBuAla]Q[2Nal]N[Aha][αMeP]FD[dK](DOTA)-NH2; triazole 4-10)",> 300
2,"CC(=O)N[C@H](C)C(=O)N[C@@H](CO)C(=O)N[C@@H](CC(=O)O)C(=O)N[C@H]1Cc2cnnn2CC[C@@H](C(=O)N2CCC[C@@]2(C)C(=O)N[C@@H](Cc2ccccc2)C(=O)N[C@@H](CC(=O)O)C(=O)N[C@H](CCCCNC(=O)CN2CCN(CC(=O)O)CCN(CC(=O)O)CCN(CC(=O)O)CC2)C(N)=O)NC(=O)[C@H](CC(N)=O)NC(=O)[C@H](Cc2ccc3ccccc3c2)NC(=O)[C@H](CCC(N)=O)NC(=O)[C@H](CC(C)(C)C)NC(=O)[C@H](Cc2cccc3ccccc23)NC1=O [Cpd #164, Ac-(D-Ala)-S-D-[Pra(6)]-(1Nal)-(t-Bu-Ala)-Q-(2Nal)-N-[DabN3(6)]-(aMe-P)-F -D-D-Lys(DOTA)-CONH2]",> 30
3,"C[C@@H](NC(=O)CN1CCN(CC(=O)O)CCN(CC(=O)O)CCN(CC(=O)O)CC1)C(=O)N[C@@H](CO)C(=O)N[C@@H](CC(=O)O)C(=O)N[C@H]1C/C=C/C[C@@H](C(=O)N2CCC[C@@]2(C)C(=O)N[C@@H](Cc2ccccc2)C(=O)N[C@@H](CC(=O)O)C(N)=O)NC(=O)[C@H](CC(N)=O)NC(=O)[C@H](Cc2ccc3ccccc3c2)NC(=O)[C@H](CC2CCNCC2)NC(=O)[C@H](CC(C)(C)C)NC(=O)[C@H](Cc2cccc3ccccc23)NC1=O [Cpd #196, DOTA-(D-Ala)-S-D-AllyG(4)-(1Nal)-(t-Bu-Ala)-[3-(4-piperidinyl)-Ala]-(2Nal)-N-AllyG(4)-(aMe-P)-F-D-CONH2] ({DOTA}-[dA]SD[AllylGly][1Nal][tBuAla][Ala(piperidin-4-yl)][2Nal]N[AllylGly][αMeP]FD-NH2; staple (E) 4-10)",0.52
4,"CC(=O)N[C@H](C)C(=O)N[C@@H](CO)C(=O)N[C@@](C)(CC(=O)O)C(=O)N[C@H]1CCCC[C@@H](C(=O)N2CCC[C@@]2(C)C(=O)N[C@@H](Cc2ccccc2)C(=O)N[C@@H](CC(=O)O)C(N)=O)NC(=O)[C@H](CC(N)=O)NC(=O)[C@H](Cc2ccc3ccccc3c2)NC(=O)[C@H](Cc2ccc(CNC(=O)CN3CCN(CC(=O)O)CCN(CC(=O)O)CCN(CC(=O)O)CC3)cc2)NC(=O)[C@H](CC(C)(C)C)NC(=O)[C@H](Cc2cccc3ccccc23)NC1=O [Cpd #205, Ac-(D-Ala)-S-(aMe-Asp)-AllyG(4)*-(1Nal)-(t-Bu-Ala)-[PAF(DOTA)]-(2Nal)-N-AllyG(4)*-(aMe-P)-F-D-CONH2]",0.082
5,"CSCC[C@H](NC(C)=O)C(=O)N[C@@H](CO)C(=O)N[C@@H](CC(=O)O)C(=O)N[C@H]1CSSC[C@@H](C(=O)N[C@H](C)C(=O)N[C@@H](Cc2ccccc2)C(=O)N[C@@H](CC(=O)O)C(N)=O)NC(=O)[C@H](CC(N)=O)NC(=O)[C@H](Cc2c[nH]c3ccccc23)NC(=O)[C@H](CCC(N)=O)NC(=O)[C@H](CC(C)C)NC(=O)[C@H](Cc2c[nH]c3ccccc23)NC1=O [compound 16, Ac-M-S-D-C(3)-W-L-Q-W-N-C(3)-(D-Ala)-F-D-CONH2] (Ac-MSDCWLQWNC[dA]FD-NH2; disulfide 4-10)",> 100
6,"CSCC[C@H](NC(C)=O)C(=O)N[C@@H](CO)C(=O)N[C@@H](CC(=O)O)C(=O)N[C@H]1CSSC[C@@H](C(=O)N2CCC[C@H]2C(=O)N[C@H](C)C(=O)N[C@@H](CC(=O)O)C(N)=O)NC(=O)[C@H](CC(N)=O)NC(=O)[C@H](Cc2c[nH]c3ccccc23)NC(=O)[C@H](CCC(N)=O)NC(=O)[C@H](CC(C)C)NC(=O)[C@H](Cc2c[nH]c3ccccc23)NC1=O [compound 17, Ac-M-S-D-C(3)-W-L-Q-W-N-C(3)-P-(D-Ala)-D-CONH2] (Ac-MSDCWLQWNCP[dA]D-NH2; disulfide 4-10)",> 100

# Further lines, results first:
row,Kd [nM],SMILES
1,> 100,"CC(=O)N[C@@H](CO)C(=O)N[C@@H](CC(=O)O)C(=O)N[C@H]1CSSC[C@@H](C(=O)N2CCC[C@H]2C(=O)N[C@@H](Cc2ccccc2)C(=O)N[C@@H](CC(=O)O)C(N)=O)NC(=O)[C@H](CC(N)=O)NC(=O)[C@H](Cc2c[nH]c3ccccc23)NC(=O)[C@H](CCC(N)=O)NC(=O)[C@H](CC(C)C)NC(=O)[C@H](Cc2c[nH]c3ccccc23)NC1=O [compound 5, Ac-S-D-C(3)-W-L-Q-W-N-C(3)-P-F-D-CONH2] (Ac-SDCWLQWNCPFD-NH2; disulfide 3-9)"
2,> 100,"CSCC[C@H](NC(C)=O)C(=O)N[C@@H](CO)C(=O)N[C@@H](CC(=O)O)C(=O)N[C@H]1CSSC[C@@H](C(=O)N2CCC[C@H]2C(=O)N[C@@H](Cc2ccccc2)C(=O)N[C@@H](CC(=O)O)C(N)=O)NC(=O)[C@H](CC(N)=O)NC(=O)[C@H](Cc2c[nH]c3ccccc23)NC(=O)[C@H](CCC(N)=O)NC(=O)[C@H](CC(C)C)NC(=O)[C@@H](C)NC1=O [compound 11, Ac-M-S-D-C(3)-(D-Ala)-L-Q-W-N-C(3)-P-F-D-CONH2] (Ac-MSDC[dA]LQWNCPFD-NH2; disulfide 4-10)"
3,> 100,"CSCC[C@H](NC(C)=O)C(=O)N[C@@H](CO)C(=O)N[C@@H](CC(=O)O)C(=O)N[C@H]1CSSC[C@@H](C(=O)N2CCC[C@H]2C(=O)N[C@@H](Cc2ccccc2)C(=O)N[C@@H](CC(=O)O)C(N)=O)NC(=O)[C@H](CC(N)=O)NC(=O)[C@H](Cc2c[nH]c3ccccc23)NC(=O)[C@@H](C)NC(=O)[C@H](CC(C)C)NC(=O)[C@H](Cc2c[nH]c3ccccc23)NC1=O [compound 13, Ac-M-S-D-C(3)-W-L-(D-Ala)-W-N-C(3)-P-F-D-CONH2] (Ac-MSDCWL[dA]WNCPFD-NH2; disulfide 4-10)"
4,> 100,"CSCC[C@H](NC(C)=O)C(=O)N[C@@H](CO)C(=O)N[C@@H](CC(=O)O)C(=O)N[C@H]1CSSC[C@@H](C(=O)N2CCC[C@H]2C(=O)N[C@@H](Cc2ccccc2)C(=O)N[C@@H](CC(=O)O)C(N)=O)NC(=O)[C@@H](C)NC(=O)[C@H](Cc2c[nH]c3ccccc23)NC(=O)[C@H](CCC(N)=O)NC(=O)[C@H](CC(C)C)NC(=O)[C@H](Cc2c[nH]c3ccccc23)NC1=O [compound 15, Ac-M-S-D-C(3)-W-L-Q-W-(D-Ala)-C(3)-P-F-D-CONH2] (Ac-MSDCWLQW[dA]CPFD-NH2; disulfide 4-10)"
5,> 100,"CSCC[C@H](NC(C)=O)C(=O)N[C@@H](CO)C(=O)N[C@@H](CC(=O)O)C(=O)N[C@H]1CSSC[C@@H](C(=O)N2CCC[C@H]2C(=O)N[C@@H](Cc2ccccc2)C(=O)N[C@H](C)C(N)=O)NC(=O)[C@H](CC(N)=O)NC(=O)[C@H](Cc2c[nH]c3ccccc23)NC(=O)[C@H](CCC(N)=O)NC(=O)[C@H](CC(C)C)NC(=O)[C@H](Cc2c[nH]c3ccccc23)NC1=O [compound 18, Ac-M-S-D-C(3)-W-L-Q-W-N-C(3)-P-F-(D-Ala)-CONH2] (Ac-MSDCWLQWNCPF[dA]-NH2; disulfide 4-10)"
6,> 100,"CSCC[C@H](NC(C)=O)C(=O)N[C@@H](C)C(=O)N[C@@H](CC(=O)O)C(=O)N[C@H]1CSSC[C@@H](C(=O)N2CCC[C@H]2C(=O)N[C@@H](Cc2ccccc2)C(=O)N[C@@H](CC(=O)O)C(N)=O)NC(=O)[C@H](CC(N)=O)NC(=O)[C@H](Cc2c[nH]c3ccccc23)NC(=O)[C@H](CCC(N)=O)NC(=O)[C@H](CC(C)C)NC(=O)[C@H](Cc2c[nH]c3ccccc23)NC1=O [compound 20, Ac-M-(L-Ala)-D-C(3)-W-L-Q-W-N-C(3)-P-F-D-CONH2] (Ac-MADCWLQWNCPFD-NH2; disulfide 4-10)"
7,> 100,"CSCC[C@H](NC(C)=O)C(=O)N[C@@H](CO)C(=O)N[C@@H](CC(=O)O)C(=O)N[C@H]1CSSC[C@@H](C(=O)N2CCC[C@H]2C(=O)N[C@@H](Cc2ccccc2)C(=O)N[C@@H](CC(=O)O)C(N)=O)NC(=O)[C@H](CC(N)=O)NC(=O)[C@H](Cc2c[nH]c3ccccc23)NC(=O)[C@H](CCC(N)=O)NC(=O)[C@H](CC(C)C)NC(=O)[C@H](C)NC1=O [compound 22, Ac-M-S-D-C(3)-(L-Ala)-L-Q-W-N-C(3)-P-F-D-CONH2] (Ac-MSDCALQWNCPFD-NH2; disulfide 4-10)"
8,> 100,"CSCC[C@H](NC(C)=O)C(=O)N[C@@H](CO)C(=O)N[C@@H](CC(=O)O)C(=O)N[C@H]1CSSC[C@@H](C(=O)N2CCC[C@H]2C(=O)N[C@@H](Cc2ccccc2)C(=O)N[C@@H](CC(=O)O)C(N)=O)NC(=O)[C@H](CC(N)=O)NC(=O)[C@H](Cc2c[nH]c3ccccc23)NC(=O)[C@H](CCC(N)=O)NC(=O)[C@H](C)NC(=O)[C@H](Cc2c[nH]c3ccccc23)NC1=O [compound 23, Ac-M-S-D-C(3)-W-(L-Ala)-Q-W-N-C(3)-P-F-D-CONH2] (Ac-MSDCWAQWNCPFD-NH2; disulfide 4-10)"
